Assay results reported in patent publication US5478807A, “Use of relaxin in the treatment of bradycardia” (Genentech, Inc., priority 1992, dated 1995).
Where two headings read alike, the source gives them in different places.

What was measured:
[1] = biological target: T1, relaxin binding sites in the rat uterus (Rattus norvegicus, UniProt Q6R6I6); assay: Displacement of 32P-relaxin binding in rat uterus tissue sections (autoradiography)
T1 construct: The frozen tissues were sectioned to 16 μm thickness; from tissue; host or cells: rat uterus (uterine horn, cervix) frozen sections
T1 sequence (Q6R6I6 1-758): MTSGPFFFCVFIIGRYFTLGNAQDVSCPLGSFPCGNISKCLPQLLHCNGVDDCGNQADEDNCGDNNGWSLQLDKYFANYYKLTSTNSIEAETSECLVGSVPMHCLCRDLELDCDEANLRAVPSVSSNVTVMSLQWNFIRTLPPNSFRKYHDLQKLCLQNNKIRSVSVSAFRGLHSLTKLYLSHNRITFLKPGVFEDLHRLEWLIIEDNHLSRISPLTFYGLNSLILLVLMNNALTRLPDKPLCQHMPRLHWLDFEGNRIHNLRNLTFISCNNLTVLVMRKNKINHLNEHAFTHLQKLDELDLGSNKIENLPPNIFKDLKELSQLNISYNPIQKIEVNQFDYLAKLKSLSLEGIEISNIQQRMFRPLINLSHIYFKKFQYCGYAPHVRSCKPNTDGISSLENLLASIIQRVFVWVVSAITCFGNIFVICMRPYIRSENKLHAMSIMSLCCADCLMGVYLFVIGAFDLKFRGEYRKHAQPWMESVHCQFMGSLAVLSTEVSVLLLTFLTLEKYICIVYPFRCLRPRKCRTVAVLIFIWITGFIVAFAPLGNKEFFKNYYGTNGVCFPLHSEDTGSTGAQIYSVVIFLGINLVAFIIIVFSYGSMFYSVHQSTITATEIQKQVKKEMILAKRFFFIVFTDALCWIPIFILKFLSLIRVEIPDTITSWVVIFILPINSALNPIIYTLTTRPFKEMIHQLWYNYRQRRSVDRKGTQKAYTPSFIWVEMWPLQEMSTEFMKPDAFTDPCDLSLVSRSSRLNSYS
Procedure: (§1) Ten-week-old normal male and cyclic female Sprague-Dawley rats (Charles River Breeding Laboratories, Wilmonton, Mass.) were used for binding specificity and binding displacement experiments. These were given food and water ad libidium and housed in a room with the ambient temperature controlled around 21° C.
The frozen tissues were sectioned to 16 μm thickness using a Reichert-Jung Model 2800 Frigocut cryostat (Cambridge Instruments). Tissue sections were fixed onto gelatin/chromium potassium sulfate treated microscope slides by warming, and immediately refrozen and stored at -80° C. overnight or longer. […]
Regions of binding were determined by overlaying the autoradiographs with adjacent sections counterstained with hematoxylin-eosin. […] Pseudocolor reconstruction and quantitative analysis of ^32 P-relaxin binding autoradiographs were performed with a RAS-3000 image analysis system (Amersham). The OD or radioactivities (cpm) of bound ^32 P relaxin (maximum binding in a particular region) were quantified by computerized densitometry based on parallel sets of ^32 P-relaxin standards (ranging from 50 to 2000 cpm) blotted onto nitrocellulose membranes (Trans-Blot SF, Bio-Rad, Richmond, Calif.). […] The dissociation constant (Kd) for relaxin was calculated by the method of Cheng and Prusoff [Biochem. Pharmacol. 22, 3099-3108 (1973)].

[2] = biological target: T2, relaxin receptors in the atria of rat heart (Rattus norvegicus, UniProt Q6R6I6); assay: Displacement of 32P-relaxin binding in rat heart tissue sections (autoradiography); conditions: for Kd: read-out: dissociation constant (Kd)
T2 construct: The frozen tissues were sectioned to 16 μm thickness; from tissue; host or cells: rat heart (right and left atrium) frozen sections, from normal and from hormone-treated gonadectomized rats
T2 sequence (Q6R6I6 1-758): T1 sequence (Q6R6I6 1-758)
Procedure: as §1
For hormonal control experiments, 10-11-week-old female rats were ovariectomized for two weeks and then injected s.c. with 10 μg estradiol cyclopentyl propionate in a […] vehicle or with vehicle alone. Likewise, 10-11-week-old male rats were castrated for 2 weeks and were injected with either 10 μg estradiol cyclopentyl propionate, 10 μg testosterone, or vehicle alone. The rats were sacrificed 7 days later by asphyxiation with CO2. The relevant tissues were removed rapidly and frozen in powdered dry ice immediately.
The frozen tissues were sectioned to 16 μm thickness using a Reichert-Jung Model 2800 Frigocut cryostat (Cambridge Instruments). Tissue sections were fixed onto gelatin/chromium potassium sulfate treated microscope slides by warming, and immediately refrozen and stored at -80° C. overnight or longer.
For binding of ^32 P-relaxin to the tissue sections, frozen slides were prewashed with binding buffer (Hank's balanced salt solution supplemented with 20 mMHEPES, pH 7.2, 1 mg/ml BSA, 0.1 mM PMSF, and 1 μg/ml leupeptin) at 4° C. for 1.5-2 hours. The tissue sections were then covered with 600-700 μl of 100 pM ^32 P-relaxin with or without excess unlabeled relaxin and other competing agents as specificity control, and incubated at 4° C. for one hour. The slides were washed 3 times for 15-30 minutes each, with binding buffer. The slides were air-dried and mounted on filter paper and exposed to Hyperfilm-βMAX (Amersham) for 3-5 days.
Regions of binding were determined by overlaying the autoradiographs with adjacent sections counterstained with hematoxylin-eosin. For relaxin binding displacement experiments, consecutive 16 μm sections were incubated with 100 pM of ^32 P-relaxin in the absence and presence of increasing concentrations (serial three-fold increases) of unlabeled relaxin in the range of 0.1-100 nM. Pseudocolor reconstruction and quantitative analysis of ^32 P-relaxin binding autoradiographs were performed with a RAS-3000 image analysis system (Amersham). The OD or radioactivities (cpm) of bound ^32 P relaxin (maximum binding in a particular region) were quantified by computerized densitometry based on parallel sets of ^32 P-relaxin standards (ranging from 50 to 2000 cpm) blotted onto nitrocellulose membranes (Trans-Blot SF, Bio-Rad, Richmond, Calif.). The binding inhibition data were fit to a four parameter equation to obtain the ED50 (the concentration of unlabeled relaxin yielding 50% displacement of the binding of ^32 p-relaxin). The dissociation constant (Kd) for relaxin was calculated by the method of Cheng and Prusoff [Biochem. Pharmacol. 22, 3099-3108 (1973)].

Q: With relaxin as the substance, how does the Kd ([1]; rat uterus (uterine horn, cervix), displacement of 100 pM 32P-relaxin, mean±S.E. of two regions, read-out: dissociation constant (Kd)) read?
A: 1.3 ± 0.22 nM

Q: What about the “extent of displacement of 32P-relaxin binding” value ([1]; uterus, increasing concentrations of unlabeled relaxin) of the same substance?
A: partial displacement

Q: And the “displacement of the binding of 100 pM 32P-relaxin” value ([2]; 100 nM competitor, normal female rat heart)?
A: displacement of the binding of 100 pM ^32 P-relaxin by 100 nM unlabeled relaxin

Q: And the “displacement of the binding of 32P-relaxin” value ([2]; 100 nM unlabeled relaxin, atria of normal male rat heart)?
A: fully displaced

Q: What about the Kd ([2]; atria of estrogen-treated ovariectomized rat heart) of the same substance?
A: 0.86 ± 0.35 nM

Q: And the Kd ([2]; atria of normal female rat heart, displacement of 32P-H2 relaxin, mean±S.E. of two regions)?
A: 1.37 ± 0.13 nM

Q: What about the “extent of displacement of 32P-relaxin binding” value ([2]; heart, increasing concentrations of unlabeled relaxin) of the same substance?
A: total displacement
